{
  "source": "patent US10532040B2",
  "about": "“Methods of treating cancer with herbacetin” (REGENTS OF THE UNIVERSITY OF MINNESOTA, priority 2011, dated 2020)",
  "key": {"ERK1/2, p90^RSK": {"system": "ERK1/2, p90^RSK", "assay": "Western blotting of ERK1/2 and p90RSK phosphorylation in HCT116 cells", "assay_type": "cell-based", "procedure": "(§1) FIGS. 3A-3H. Anticancer effect of herbacetin. (a) The effect of herbacetin on ODC activity in colon cancer cell lines was measured as the release of CO2 from L-[1-C^14] ornithine. […] (b) The effect of herbacetin and DFMO on the growth of colon cancer cells and (c) TPA-induced JB6 cell growth was compared. Cells were incubated for 72 h and growth was estimated using the MTS assay. (d) The effect of herbacetin on anchorage independent HCT116 colon cancer cell growth and (e) TPA-induced JB6 cell transformation was assessed. Cells were incubated for 2 weeks and then colonies were counted using a microscope and the Image-Pro PLUS (v.6) computer software program. The effect of herbacetin on AP-1 reporter activity in (f) HCT116 colon cancer cells and (g) TPA-induced AP-1 reporter activity in JB6 mouse epidermal cells was analyzed using the substrates included in the reporter assay system. […] (h) The effect of herbacetin on the phosphorylation of ERK1 and ERK2 in HCT116 colon cancer cells was determined by Western blotting. […]\n(§2) We determined whether herbacetin affected the reporter activity of the MAP kinase target transcription factor, activator protein-1 (AP-1), in HCT116 cells or JB6 cells stimulated with TPA. […] AP-1 reporter activity was then measured (FIG. 3f, g) and the activity was attenuated by herbacetin in colon cancer cells and in TPA-activated JB6 cells. […]"}, "[1]": {"system": "HCT116 cells (shMock, shODC, shODC+ODC)", "assay": "growth of shMock, shODC and shODC+ODC HCT116 cells", "assay_type": "cell-based", "procedure": "FIGS. 4A-4B. The anti-cancer activity exerted by herbacetin is dependent on ODC expression. (a) The effect of herbacetin on HCT116 colon cancer cell growth was assessed in shMock, shODC and shODC cells with rescued ODC expression. Cells were incubated for 72 h and growth was determined by MTS assay. (b) The effect of herbacetin on anchorage independent HCT116 colon cancer cell growth was assessed inshMock, shODC and shODC cells with rescued ODC expression. Cells were incubated in 0.3% agar for 3 weeks and colonies were counted using a microscope and the Image-Pro PLUS (v.6) computer software program. Data are represented as means±S.D. of triplicate values. The asterisk (*) indicates a significant effect (p<0.05) of herbacetin or DFMO compared to untreated controls.\nThe lentiviral expression vectors, including pLKO.1-shODC and packaging vectors, including pMD2.0G and psPAX, were purchased from Addgene Inc. (Cambridge, Mass.). […] The transfection medium was changed at 4 h after transfection and then cells were cultured for 36 h. The viral particles were harvested by filtration using a […] syringe filter and then combined with 8 μg/ml of polybrane (Millipore, Billerica, Mass.) and infected into 60% confluent HCT-116 cells overnight. The cell culture medium was replaced with fresh complete growth medium for 24 h and then cells were selected with 1.5 μg/ml of puromycine for 36 h. The selected cells were used for experiments."}, "[2]": {"system": "activator protein-1 (AP-1)", "assay": "TPA-induced AP-1 reporter activity in JB6 cells", "assay_type": "cell-based, mouse", "conditions": "JB6 cells pre-treated 2 h, then TPA 48 h", "procedure": "as §1, §2"}, "ODC": {"biological_target": "T1, ODC (Homo sapiens, UniProt P11926)", "T1 sequence (P11926 1-461)": "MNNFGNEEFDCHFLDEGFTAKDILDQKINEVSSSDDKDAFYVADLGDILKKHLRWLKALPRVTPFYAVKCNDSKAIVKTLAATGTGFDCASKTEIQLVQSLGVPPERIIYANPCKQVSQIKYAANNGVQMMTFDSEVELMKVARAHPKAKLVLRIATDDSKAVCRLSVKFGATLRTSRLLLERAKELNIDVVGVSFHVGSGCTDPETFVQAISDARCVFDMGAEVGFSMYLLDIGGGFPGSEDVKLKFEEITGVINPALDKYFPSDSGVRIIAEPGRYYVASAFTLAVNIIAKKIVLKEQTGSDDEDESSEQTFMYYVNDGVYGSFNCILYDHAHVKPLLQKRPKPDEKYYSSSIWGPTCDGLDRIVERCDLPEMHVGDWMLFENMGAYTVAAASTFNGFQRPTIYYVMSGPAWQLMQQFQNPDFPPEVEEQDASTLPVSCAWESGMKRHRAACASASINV", "assay": "pull-down assay with herbacetin-conjugated Sepharose 4B beads (recombinant ODC or HCT116 lysate)", "assay_type": "binding", "conditions": "recombinant ODC protein or HCT116 cell lysate, Western blot", "procedure": "A recombinant human ODC protein (200 ng) or total cell lysates (500 μg) to were incubated with herbacetin Sepharose 4B (or Sepharose 4B only as a control) beads (50 μl, 50% slurry) in reaction buffer (50 mM Tris pH 7.5, 5 mM EDTA, 150 mM NaCl, 1 mM DTT, 0.01% NP40, 2 μg/mL bovine serum albumin). After incubation with gentle rocking overnight at 4° C., the beads were washed 5 times with buffer (50 mM Tris pH 7.5, 5 mM EDTA, 150 mM NaCl, 1 mM DTT, 0.01% NP40) and binding was determined by Western blotting."}, "[3]": {"system": "activator protein-1, Cox2, NF-kappaB", "assay": "promoter activities (preliminary data)", "assay_type": "cell-based"}, "[4]": {"system": "HCT116, DLD1, HT29 colon cancer cells", "assay": "growth of colon cancer cells, MTS assay", "assay_type": "cell-based", "procedure": "FIGS. 3A-3H. Anticancer effect of herbacetin. (a) The effect of herbacetin on ODC activity in colon cancer cell lines was measured as the release of CO2 from L-[1-C^14] ornithine. […] (b) The effect of herbacetin and DFMO on the growth of colon cancer cells and (c) TPA-induced JB6 cell growth was compared. Cells were incubated for 72 h and growth was estimated using the MTS assay. (d) The effect of herbacetin on anchorage independent HCT116 colon cancer cell growth and (e) TPA-induced JB6 cell transformation was assessed. Cells were incubated for 2 weeks and then colonies were counted using a microscope and the Image-Pro PLUS (v.6) computer software program. The effect of herbacetin on AP-1 reporter activity in (f) HCT116 colon cancer cells and (g) TPA-induced AP-1 reporter activity in JB6 mouse epidermal cells was analyzed using the substrates included in the reporter assay system. Data are represented as means±S.D. of triplicate values from three independent experiments and the asterisk (*) indicates a significant (p<0.05) effect of herbacetin or DFMO compared to untreated or TPA-treated controls. (h) The effect of herbacetin on the phosphorylation of ERK1 and ERK2 in HCT116 colon cancer cells was determined by Western blotting. Similar results were observed from two independent experiments."}, "ERKs/RSK2 signaling": {"system": "ERKs/RSK2 signaling", "assay": "TPA- or EGF-induced phosphorylation of ERK1 and ERK2 in JB6 cells, Western blotting", "assay_type": "cell-based, mouse", "conditions": "herbacetin 2 h then TPA or EGF 15 min", "procedure": "FIGS. 6A-6B. The effect of herbacetin on (a) TPA- or (b) EGF-induced phosphorylation of ERK1 and ERK2 in JB6 mouse epidermal cells was analyzed by Western blotting. Serum-starved (0.1% FBS; 24 h) cells were treated with various doses of herbacetin for 2 h followed by treatment with TPA for 15 min.\nWe determined whether herbacetin affected the reporter activity of the MAP kinase target transcription factor, activator protein-1 (AP-1), in HCT116 cells or JB6 cells stimulated with TPA. HCT116 cells were treated with herbacetin for 48 hand JB6 cells were pre-treated with herbacetin for 2 h before stimulation with TPA for 48 h. AP-1 reporter activity was then measured (FIG. 3f, g) and the activity was attenuated by herbacetin in colon cancer cells and in TPA-activated JB6 cells. […] We next examined whether herbacetin directly suppresses phosphorylation of ERK1/2. JB6 cells were treated with TPA or EGF for 15 min after pre-treatment with herbacetin for 2 h and protein expression was analyzed by Western blotting (Supplementary FIG. 2a,b)."}},
  "note": "“Also recorded” adds a separate entry of the source.",
  "data": [
    {"smiles": "O=c1c(O)c(-c2ccc(O)cc2)oc2c(O)c(O)cc(O)c12", "note": "[herbacetin, 3,5,7,8,4′-Pentahydroxyflavone]", "values": [
      {"measurement": "phosphorylation of ERK1/2 and p90^RSK", "setting": "ERK1/2, p90^RSK", "value": "suppressed phosphorylation"},
      {"measurement": "inhibitory effect on anchorage-dependent and -independent growth of shODC cells", "setting": "[1]; shODC vs shMock HCT116 cells", "value": "resistance to herbacetin; also recorded: resistant"},
      {"measurement": "sensitivity of shODC cells with rescued ODC expression", "setting": "[1]; shODC+ODC HCT116 cells", "value": "restored; also recorded: regained sensitivity"},
      {"measurement": "inhibition of colony growth after re-introduction of ODC into sh-ODC knockdown cells", "setting": "[1]; shODC+ODC HCT116 cells, soft agar", "value": "restored sensitivity"},
      {"measurement": "AP-1 reporter activity", "setting": "[2]", "value": "attenuated"},
      {"measurement": "binding to ODC", "setting": "ODC", "value": "directly binds to ODC; also recorded: bind to ornithine decarboxylase (ODC)"},
      {"measurement": "promoter activities of activator protein-1, Cox2, NF-kappaB", "setting": "[3]", "value": "suppress promoter activities"},
      {"measurement": "inhibitory effect on growth of colon cancer cell lines", "setting": "[4]; 72 h, MTS, HCT116, DLD1, HT29", "value": "greatest inhibitory effect on colon cancer cells that expressed higher levels of ODC"},
      {"measurement": "proliferation and anchorage independent cell growth of several colon cancer cell lines", "setting": "[4]; preliminary data", "value": "decrease proliferation and anchorage independent cell growth"},
      {"measurement": "direct suppression of ERKs/RSK2 signaling", "setting": "ERKs/RSK2 signaling", "value": "does not occur directly through the suppression of ERKs/RSK2 signaling"}
    ]}
  ]
}
